Test results from patent US20030118584A1, “Restoration of platelet aggregation by antibody administration after GPIIB/IIIa antagonist treatment” (G.D. Searle & Co., priority 1998, published 2003).

Legend:
platelet aggregation = test system: platelet aggregation; parameters: dose or concentration left out as unconfirmed; conditions: anesthetized dogs; for up to 210 minutes; cited from earlier work
[1] = Plasma half-life of compound B in guinea pig; type: in vivo
Method: Therefore, follow-up studies were conducted in dogs because the half-life of compounds B in this species is more similar to the human half-life than is the half-life in the guinea pig.
The half life of compound B was determined by fitting the plasma concentrations and determining the elimination rate constant ke. The half-life is calculated as t½=0.693/ke.

[2] = Total and free plasma levels of compound B in dog (HPLC); type: in vivo; conditions: throughout the three bolus infusions of Mab 9F7, FIG. 11
Method: In a second study, a dog was treated with a capsule of 10 mg of compound A, BID for 4 days (15 mg on day 3) prior to antibody testing. […] Four hours after the last oral dose of compound A, a dose of pentobarbitol and the monoclonal […] antibody (P187-9F7) was infused by a i.v. bolus injection. Each bolus contained a 5-fold molar excess over drug plasma levels (about 50 mg of Mab 9F7). A control dog was given identical amounts of antibody without compound A oral dosing. Blood samples were collected for aggregation assays at 5, 15, 30 and 60 minutes after each bolus administration of antibody, plasma levels of Mab 9F7, and total and free plasma levels of compound B.
This method involves the extraction of compound B and an internal standard (compound F, shown hereinafter) from acidified dog plasma with a C18 solid phase extraction column. Analysis is by reverse phase high performance liquid chromatography with fluorescence detection. […] Quality control pools were prepared in dog plasma and quantified using the human calibration curve. A linear weighted (1/concentration squared) least squares regression analysis was used to quantify samples. This method was validated with a minimum quantifiable level of 1.00 ng/mL. […]
Removed the samples to be analyzed from the freezer and thawed. […] The filtrate was then analyzed by the method given below. […]

[3] = Elimination of compounds B and D from the circulation; type: in vivo; conditions: for Route of removal from the circulation: in vivo; for Change in elimination half-life with decreased creatinine clearance: renal impairment
Description: In renally impaired patients, reversal of the functionality of these compounds would be especially useful in an emergency situation where rapid removal of active compound is desired.

[4] = test system: heparinized human whole blood; assay: Activated clotting time (ACT) in heparinized human whole blood; type: cell-based; conditions: 1.4 Units/mL heparin; varying concentrations; FIG. 1
Description: This process can be used to calculate a standardized concentration curve for various known concentrations of anti-platelet compounds. The process can also be used to measure activated clotting times for use in calculating the ACT number for the processes of the invention.
A. Blood was drawn from a human volunteer into a syringe containing heparin. The heparin to whole blood ratio was 1:10 such that the final concentration of heparin in the syringe was 1.4 Units/mL.
B. The Hemochron™-8000 was set up to run ACT using the P-215 tubes from the same manufacturer (International Technidyne).
A. A 1 mL sample of the above heparinized blood was admixed and maintained (incubated) with 2.5-10 μl of antagonist compound or saline for 5 minutes at room temperature.
B. The Hemochron™ was started as 400 μl of the test sample was pipetted into the P-215 tube. The tube contents were gently mixed, placed into the Hemochron™ and turned one revolution until the light on the instrument came on.
C. Step B was repeated for the second channel of the instrument within 30 seconds to give an average activated clotting time. […]
The activated clotting time was first measured (in seconds) for control whole blood from each donor containing only 1.4 Units/mL of heparin. The clotting times were then measured as in Example 1 by varying concentrations of antiplatelet compounds B and D in addition to heparin for each donor. […]

GPIIb/IIIa = GPIIb/IIIa (Homo sapiens, UniProt P05106+P08514); conditions: when administered; cited from earlier work

Half-life [1] | Levels of total compound B (free plus antibody bound) [2] | Route of removal from the circulation [3] | Change in elimination half-life with decreased creatinine clearance [3] | Molecule | Inhibition of platelet aggregation, measured ex vivo (platelet aggregation) | Effect of antiplatelet compound concentration on activated clotting time [4] | Effect on activated clotting times (GPIIb/IIIa)
– | – | – | – | cyclic [D-2-aminobutyryl-N2-methyl-L-arginyl-glycyl-L-aspartyl-3-aminomethyl-benzoic acid] methanesulfonic acid salt [DMP728] | nearly complete inhibition | – | –
short half-life | increased throughout the three infusions | almost exclusively by the kidney | appreciable increases | C#C[C@H](CC(=O)O)NC(=O)CCC(=O)Nc1ccc(C(=N)N)cc1 [compound B, 3S-[[4-[[4-(aminoiminomethyl)phenyl]amino]-1,4-dioxobutyl]amino]-4-pentynoic acid] | – | directly affect the activated clotting time | –
– | – | – | – | C7E3: anti-GPIIb/IIIa antibody (Centocor) | – | – | increase of activated clotting times
– | – | almost exclusively by the kidney | appreciable increases | N=C(N)c1ccc(N2CC[C@H](NC(=O)NCCC(=O)O)C2=O)cc1 [compound D, 3-[[[[1-[4-(aminoiminomethyl)phenyl]-2-oxo-pyrrolidin-3S-yl]amino]carbonyl]amino]propanoic acid] | – | directly affect the activated clotting time | –
